Tests used:
Test in all cases: normalised viability (% of control), CellTiter-Blue; higher = more viable cells (about 100 = DMSO control)
Details in all cases: incubation time: 72 h
HCC1599 = system: HCC1599
Outline: (§1)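 Compound dissolved in 5 µl medium was pre-loaded into 384-well plates, and breast cancer cell lines in 20 µl suspension were seeded on top and incubated 72 h. After adding 2.5 µl CellTiter-Blue reagent for 2 h at 37 °C, fluorescence was read at 560/590 nm. Plates were normalised to vehicle (100) and a positive kill control (0), with Z'-factor quality control. Each value is normalised viability at a single listed concentration from the series.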

CAL-85-1 = system: CAL-85-1
Outline: as §1

HCC1143 = system: HCC1143
Outline: as §1

MFM-223 = system: MFM-223
Outline: as §1

BT-549 = system: BT-549
Outline: as §1

CAL-120 = system: CAL-120
Outline: as §1

CAL-51 = system: CAL-51
Outline: as §1

SK-BR-3 = system: SK-BR-3
Outline: as §1

MDA-MB-231 = system: MDA-MB-231
Outline: as §1

CAL-148 = system: CAL-148
Outline: as §1

HDQ-P1 = system: HDQ-P1
Outline: as §1

Hs578T = system: Hs578T
Outline: as §1

MDA-MB-453 = system: MDA-MB-453
Outline: as §1

MDA-MB-436 = system: MDA-MB-436
Outline: as §1

BT-474 = system: BT-474
Outline: as §1

HCC1937 = system: HCC1937
Outline: as §1

DU-4475 = system: DU-4475
Outline: as §1

C[C@]1(O)C[C@@H](c2nc(-c3ccc4ccc(-c5ccccc5)nc4c3)c3c(N)nccn32)C1 [OSI-906]
normalised viability [%]
Details	3 nM	10 nM	30 nM	100 nM	1000 nM	10000 nM
BT-474	–	102	–	–	91.5	78.4
BT-549	–	95.4	–	–	89.1	41.3
CAL-51	91.2	–	97.5	96.3	–	–
CAL-85-1	97.3	–	85.7	86.4	–	–
CAL-120	–	96.6	–	–	84.2	56.2
CAL-148	96.8	–	89.8	91.7	–	–
DU-4475	92.7	–	104	88.8	–	–
HCC1143	–	99.9	–	–	85.5	75.2
HCC1599	–	104	–	–	76.8	78.9
HCC1937	–	92.8	–	–	79.7	48.4
HDQ-P1	79.4	–	83.9	85.4	–	–
Hs578T	–	103	–	–	95.2	71.4
MDA-MB-231	–	84.4	–	–	79.7	74.3
MDA-MB-436	–	85.2	–	–	96	71.7
MDA-MB-453	97.9	–	92.9	78.6	–	–
MFM-223	–	98.3	–	–	91.6	74.5
SK-BR-3	–	88.7	–	–	79.7	54.3

C[C@]12CC[C@@H]3c4ccc(OC(=O)N(CCCl)CCCl)cc4CC[C@H]3[C@@H]1CC[C@@H]2O [Estramustine]
normalised viability [%]
Details	0.297 nM	0.99 nM	2.97 nM	9.9 nM	99 nM	990 nM
BT-474	–	116	–	–	115	116
BT-549	–	82.7	–	–	89.6	87.2
CAL-51	88.7	–	86.3	86.7	–	–
CAL-85-1	100	–	90.9	101	–	–
CAL-120	–	113	–	–	107	105
CAL-148	118	–	101	106	–	–
DU-4475	93.6	–	99.3	108	–	–
HCC1143	–	109	–	–	106	114
HCC1599	–	89	–	–	76.9	98.3
HCC1937	–	88.9	–	–	75	92.2
HDQ-P1	107	–	106	109	–	–
Hs578T	–	113	–	–	100	98
MDA-MB-231	–	100	–	–	109	119
MDA-MB-436	–	95	–	–	96.1	99.4
MDA-MB-453	89.2	–	102	101	–	–
MFM-223	–	101	–	–	98.3	103
SK-BR-3	–	99.1	–	–	97.5	101
